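Values below derive from 48-hour exposures of cells grown in 96-well plates, with endpoints linearly interpolated between the two concentrations bracketing the appropriate inhibition level. GI50 is the concentration that inhibits growth by half. TGI denotes the concentration required for complete inhibition of growth.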
What was measured:
Test in all cases: NCI anticancer screen, dose series, 48 h
SR leukemia = tested on: SR leukemia
K-562 leukemia = tested on: K-562 leukemia
M14 melanoma = tested on: M14 melanoma
SK-MEL-2 melanoma = tested on: SK-MEL-2 melanoma
HCT-15 colon = tested on: HCT-15 colon
IGROV1 ovarian = tested on: IGROV1 ovarian
SF-295 CNS = tested on: SF-295 CNS
HOP-62 NSCLC = tested on: HOP-62 NSCLC

With `C[CH2][Sn]([CH2]C)([O]C(=O)c1ccccc1OC)[O][Sn]([CH2]C)([CH2]C)[O]C(=O)c1ccccc1OC` the GI50 (SR leukemia) was > 100 µM, the TGI (SR leukemia) was > 100 µM and the GI50 (K-562 leukemia) was 47 µM. For the same compound, the TGI (K-562 leukemia) was > 100 µM, the GI50 (M14 melanoma) was > 100 µM and the TGI (M14 melanoma) was > 100 µM. For the same compound, the GI50 (SK-MEL-2 melanoma) was 91.5 µM, the TGI (SK-MEL-2 melanoma) was > 100 µM and the GI50 (HCT-15 colon) was > 100 µM. The TGI (HCT-15 colon) was > 100 µM, the GI50 (IGROV1 ovarian) was > 100 µM and the TGI (IGROV1 ovarian) was > 100 µM. For the same compound, the GI50 (SF-295 CNS) was > 100 µM, the TGI (SF-295 CNS) was > 100 µM and the GI50 (HOP-62 NSCLC) was > 100 µM. For the same compound, the TGI (HOP-62 NSCLC) was > 100 µM.

For `Cc1ccc(C)c(N2C(=O)C(=O)C(c3nc4ccccc4s3)/C(=N/NC(=O)NN)C2=O)c1` (centres undefined), the TGI (SR leukemia) was > 100 µM, the TGI (M14 melanoma) was > 100 µM and the TGI (SK-MEL-2 melanoma) was > 100 µM. The TGI (HCT-15 colon) was > 100 µM, the TGI (IGROV1 ovarian) was > 100 µM and the TGI (SF-295 CNS) was > 100 µM. For the same compound, the TGI (HOP-62 NSCLC) was > 100 µM.

With `Cc1nc(C(=O)O)c2ccccc2n1` the TGI (SR leukemia) was > 100 µM, the TGI (K-562 leukemia) was > 100 µM and the TGI (SK-MEL-2 melanoma) was > 100 µM. For the same compound, the TGI (IGROV1 ovarian) was > 100 µM and the TGI (SF-295 CNS) was > 100 µM.

For `C=CNC(=O)NC(=O)CSc1nnc(-c2ccccc2NC(=O)C(F)(F)F)c(=O)[nH]1`, the TGI (SR leukemia) was > 100 µM, the TGI (K-562 leukemia) was > 100 µM and the TGI (M14 melanoma) was > 100 µM. The TGI (SK-MEL-2 melanoma) was > 100 µM, the TGI (HCT-15 colon) was > 100 µM and the TGI (IGROV1 ovarian) was > 100 µM. For the same compound, the TGI (SF-295 CNS) was > 100 µM and the TGI (HOP-62 NSCLC) was > 100 µM.

`COCOCC/C=C/C=O` was tested, and the TGI (SR leukemia) was > 100 µM, the TGI (K-562 leukemia) was > 100 µM and the TGI (M14 melanoma) was > 100 µM. For the same compound, the TGI (SK-MEL-2 melanoma) was > 100 µM, the TGI (HCT-15 colon) was > 100 µM and the TGI (IGROV1 ovarian) was > 100 µM. For the same compound, the TGI (SF-295 CNS) was > 100 µM.

In the case of `NC(=O)NNC(=O)NC12CC3CC(CC(C3)C1)C2`, the TGI (K-562 leukemia) is reported as > 100 µM, the TGI (M14 melanoma) is reported as > 100 µM and the TGI (SK-MEL-2 melanoma) is reported as > 100 µM. The TGI (HCT-15 colon) was > 100 µM, the TGI (IGROV1 ovarian) was > 100 µM and the TGI (SF-295 CNS) was > 100 µM. For the same compound, the TGI (HOP-62 NSCLC) was > 100 µM.

For `N#CC(c1ccccn1)c1nc2ccccc2[nH]1` (centres undefined), the TGI (SR leukemia) was > 100 µM, the TGI (K-562 leukemia) was > 100 µM and the TGI (M14 melanoma) was > 100 µM. For the same compound, the TGI (SK-MEL-2 melanoma) was > 100 µM, the TGI (SF-295 CNS) was > 100 µM and the TGI (HOP-62 NSCLC) was > 100 µM.

For `Cc1ccc(S(=O)(=O)N/N=C(/CC(=O)c2c(C)n([O-])c3ccccc3[n+]2=O)C(=O)Nc2ccccc2C)cc1`, the TGI (SR leukemia) was > 100 µM, the TGI (M14 melanoma) was > 100 µM and the TGI (SK-MEL-2 melanoma) was > 100 µM. For the same compound, the TGI (HCT-15 colon) was > 100 µM, the TGI (IGROV1 ovarian) was > 100 µM and the TGI (SF-295 CNS) was > 100 µM. The TGI (HOP-62 NSCLC) was > 100 µM.

For `N#Cc1ccc(C=NC23CC4CC(CC(C4)C2)C3)cc1`, the TGI (SR leukemia) was > 100 µM, the TGI (K-562 leukemia) was > 100 µM and the TGI (M14 melanoma) was > 100 µM. For the same compound, the TGI (SK-MEL-2 melanoma) was > 100 µM, the TGI (HCT-15 colon) was > 100 µM and the TGI (IGROV1 ovarian) was > 100 µM. The TGI (SF-295 CNS) was > 100 µM and the TGI (HOP-62 NSCLC) was > 100 µM.

With `O=C(CC1SC(=Nc2ccccc2Cl)NC1=O)Nc1ccc(Cl)cc1Cl` (centres undefined) the TGI (M14 melanoma) was > 100 µM, the TGI (SK-MEL-2 melanoma) was > 100 µM and the TGI (IGROV1 ovarian) was > 100 µM. The TGI (SF-295 CNS) was > 100 µM and the TGI (HOP-62 NSCLC) was > 100 µM.

With `N#CC(C#N)c1ccc(C(=O)N2CCC[C@H]2CO)cc1` the TGI (K-562 leukemia) was > 100 µM, the TGI (M14 melanoma) was > 100 µM and the TGI (SK-MEL-2 melanoma) was > 100 µM. The TGI (HCT-15 colon) was > 100 µM, the TGI (IGROV1 ovarian) was > 100 µM and the TGI (SF-295 CNS) was > 100 µM. The TGI (HOP-62 NSCLC) was > 100 µM.

For `O=S(=O)(/C=C/C(=C/c1ccccc1)S(=O)(=O)c1ccccc1)c1ccccc1`, the TGI (SR leukemia) was 4.41 µM, the TGI (K-562 leukemia) was 9.19 µM and the TGI (M14 melanoma) was 2.57 µM. The TGI (SK-MEL-2 melanoma) was 3.54 µM, the TGI (HCT-15 colon) was 3.3 µM and the TGI (IGROV1 ovarian) was 25 µM. The TGI (SF-295 CNS) was 3.05 µM and the TGI (HOP-62 NSCLC) was 3.5 µM.

In the case of `O=c1[nH]cc(F)c(=O)n1C1OC(CO)C(O)C1O` (centres undefined), the TGI (K-562 leukemia) is reported as > 100 µM, the TGI (M14 melanoma) is reported as > 100 µM and the TGI (SK-MEL-2 melanoma) is reported as > 100 µM. For the same compound, the TGI (HCT-15 colon) was > 100 µM, the TGI (SF-295 CNS) was > 100 µM and the TGI (HOP-62 NSCLC) was > 100 µM.

In the case of `O=S(=O)(c1cccc(N=C=S)c1)c1cccc(N=C=S)c1`, the TGI (K-562 leukemia) is reported as > 100 µM, the TGI (M14 melanoma) is reported as 25.6 µM and the TGI (SK-MEL-2 melanoma) is reported as 33.8 µM. The TGI (HCT-15 colon) was 33.8 µM, the TGI (IGROV1 ovarian) was 34.7 µM and the TGI (SF-295 CNS) was 39.4 µM. For the same compound, the TGI (HOP-62 NSCLC) was 26.5 µM.

For `NC(=O)c1csc(C2OC(COP(=O)(O)CP(=O)(O)OCC3OC(n4cnc5c(N)ncnc54)C(O)C3O)C(O)C2O)n1` (centres undefined), the TGI (K-562 leukemia) was > 100 µM, the TGI (M14 melanoma) was > 100 µM and the TGI (SK-MEL-2 melanoma) was > 100 µM. The TGI (HCT-15 colon) was > 100 µM, the TGI (IGROV1 ovarian) was > 100 µM and the TGI (SF-295 CNS) was > 100 µM. The TGI (HOP-62 NSCLC) was > 100 µM.

`CCCCCCCCCCCCC(Br)C(=O)NCC(N)=O` (centres undefined) gave a TGI (M14 melanoma) of 24.6 µM, a TGI (SK-MEL-2 melanoma) of 26.4 µM and a TGI (HCT-15 colon) of 28.7 µM. The TGI (IGROV1 ovarian) was 29.8 µM, the TGI (SF-295 CNS) was 29.5 µM and the TGI (HOP-62 NSCLC) was 29.3 µM.

For `CC(C)=CC(=O)N(C)C1C2CN3CCC(O2)C13` (centres undefined), the TGI (K-562 leukemia) was > 100 µM, the TGI (M14 melanoma) was > 100 µM and the TGI (SK-MEL-2 melanoma) was > 100 µM. The TGI (HCT-15 colon) was > 100 µM, the TGI (IGROV1 ovarian) was > 100 µM and the TGI (SF-295 CNS) was > 100 µM. The TGI (HOP-62 NSCLC) was > 100 µM.

`COc1ccc(-c2cc(C(=O)Nc3ccc(C)c(C)c3)nc(NC#N)n2)cc1` was tested, and the TGI (K-562 leukemia) was > 100 µM, the TGI (M14 melanoma) was > 100 µM and the TGI (SK-MEL-2 melanoma) was > 100 µM. For the same compound, the TGI (HCT-15 colon) was > 100 µM and the TGI (IGROV1 ovarian) was > 100 µM.

For `COCCNC(=O)C1C(=O)C(=O)N(CCOC)C1=O` (centres undefined), the TGI (SR leukemia) was > 100 µM, the TGI (K-562 leukemia) was > 100 µM and the TGI (M14 melanoma) was > 100 µM. The TGI (SK-MEL-2 melanoma) was > 100 µM, the TGI (HCT-15 colon) was > 100 µM and the TGI (IGROV1 ovarian) was > 100 µM. For the same compound, the TGI (SF-295 CNS) was > 100 µM and the TGI (HOP-62 NSCLC) was > 100 µM.

For `O=C(O)/C=C/c1nc2ccccc2c(=O)o1`, the TGI (K-562 leukemia) was > 100 µM, the TGI (M14 melanoma) was > 100 µM and the TGI (SK-MEL-2 melanoma) was > 100 µM. For the same compound, the TGI (HCT-15 colon) was > 100 µM, the TGI (IGROV1 ovarian) was > 100 µM and the TGI (SF-295 CNS) was > 100 µM.

In the case of `Cc1cc(C)nc(NS(=O)(=O)c2ccc(Nc3c4ccccc4nc4c(C(=O)Nc5ccc(S(=O)(=O)N=C(N)N)cc5)cccc34)cc2)n1`, the TGI (K-562 leukemia) is reported as > 100 µM, the TGI (M14 melanoma) is reported as > 100 µM and the TGI (SK-MEL-2 melanoma) is reported as > 100 µM. For the same compound, the TGI (HCT-15 colon) was > 100 µM, the TGI (IGROV1 ovarian) was > 100 µM and the TGI (HOP-62 NSCLC) was > 100 µM.

From PubChem BioAssay (NCI)
